Laboratory results from ChEMBL document CHEMBL4043121, “5-Bromoindirubin 3'-(O-oxiran-2-ylmethyl)oxime: A long-acting anticancer agent and a suicide inhibitor for epoxide hydrolase” (Bioorg Med Chem, 2017).
Calls of active or inactive are those of the source. The calls are words filed in the database; no cut-off is given here.

Columns and labels:
[1] = test system: HepG2; experiment: Cytotoxicity against human HepG2 cells assessed as cell growth inhibition after 24 hrs by alamar blue assay; type: functional, cell-based; conditions: HepG2, 24 h
[2] = test system: HepG2; experiment: Cytotoxicity against human HepG2 cells assessed as cell viability at 3 uM up to 72 hrs by alamar blue assay; type: functional, cell-based
[3] = Drug metabolism in human HepG2 cell lysate assessed as epoxide hydrolase-mediated oxirane hydrolysis at 20 uM measured up to 30 mins by HPLC analysis; type: ADME; conditions: 0.5 h
[4] = Drug metabolism in human HepG2 cell lysate assessed as epoxide hydrolase-mediated 5-bromoindirubin 3'-(O-2,3-dihydroxypropyl)oxime level by HPLC analysis; type: ADME; conditions: TDE = time-dependent effect
[5] = Drug metabolism in human HepG2 cell lysate assessed as epoxide hydrolase-mediated 5-bromoindirubin 3'-(O-2,3-dihydroxypropyl)oxime formation after 30 mins by UPLC/MS analysis; type: ADME; conditions: 0.5 h
[6] = Drug recovery in human HepG2 cell lysate after 10 to 30 mins by HPLC analysis; type: ADME, cell-based
[7] = test system: epoxide hydrolase; experiment: Substrate activity at epoxide hydrolase in human HepG2 cell lysate after 5 mins by Lineweaver-Burk plot analysis; type: ADME
[8] = test system: HepG2; experiment: Cytotoxicity against human HepG2 cells assessed as cell viability at 1 uM after 24 hrs by alamar blue assay relative to control; type: functional; conditions: HepG2, 24 h, read-out: Activity
[9] = Drug recovery in human HepG2 cell lysate by HPLC analysis; type: ADME, cell-based; conditions: TDE = time-dependent effect
[10] = test system: HepG2; experiment: Retention time of the compound in human HepG2 cell lysate by HPLC analysis; type: ADME, cell-based
[11] = Drug metabolism in human HepG2 cell lysate assessed as epoxide hydrolase-mediated 5-bromoindirubin 3'-(O-2,3-dihydroxypropyl)oxime formation after 30 mins by HPLC analysis; type: ADME; conditions: 0.5 h
[12] = species on record: Homo sapiens; experiment: Inhibition of epoxide hydrolase in human HepG2 cell lysate up to 25 uM by Kitz-Wilson method; conditions: TDE = time-dependent effect
[13] = species on record: Homo sapiens; experiment: Effect on epoxide hydrolase activity in human HepG2 cell lysate measured up to 25 uM
[14] = test system: HepG2; experiment: Cytotoxicity against human HepG2 cells assessed as cell viability at 3 uM after 72 hrs by alamar blue assay relative to control; type: functional; conditions: HepG2, 72 h, read-out: Activity
[15] = Substrate activity at epoxide hydrolase in human HepG2 cell lysate assessed as 5-bromoindirubin 3'-(O-2,3-dihydroxypropyl)oxime formation at 2.5 to 6.25 uM after 5 mins by HPLC analysis; type: ADME
[16] = Drug metabolism in human HepG2 cell lysate assessed as epoxide hydrolase-mediated 5-bromoindirubin 3'-(O-2,3-dihydroxypropyl)oxime level after 20 mins by HPLC analysis; type: ADME
[17] = test system: HepG2; experiment: Cytotoxicity against human HepG2 cells assessed as cell viability at 3 uM after 24 hrs by alamar blue assay relative to control; type: functional; conditions: HepG2, 24 h, read-out: Activity
[18] = Drug recovery in human HepG2 cell lysate at 5 mins by HPLC analysis; type: ADME, cell-based; conditions: read-out: Drug recovery
[19] = Drug recovery in human HepG2 cell lysate measured immediately after compound addition by HPLC analysis; type: ADME, cell-based; conditions: read-out: Drug recovery
[20] = test system: HepG2; experiment: Cytotoxicity against human HepG2 cells assessed as cell viability at 1 uM after 72 hrs by alamar blue assay relative to control; type: functional; conditions: HepG2, 72 h, read-out: Activity
[21] = Substrate activity at epoxide hydrolase in human HepG2 cell lysate assessed as 5-bromoindirubin 3'-(O-2,3-dihydroxypropyl)oxime formation at >10 uM after 5 mins by HPLC analysis; type: ADME
[22] = species on record: Homo sapiens; experiment: Inhibition of epoxide hydrolase in human HepG2 cell lysate up to 25 uM measured after 5 to 10 mins by Kitz-Wilson method
[23] = Drug metabolism in human HepG2 cell lysate assessed as epoxide hydrolase-mediated 5-bromoindirubin 3'-(O-2,3-dihydroxypropyl)oxime level after 5 mins by HPLC analysis; type: ADME
[24] = Drug recovery in human HepG2 cell lysate measured up to 30 mins by HPLC analysis; type: ADME, cell-based; conditions: read-out: Drug recovery
[25] = Drug metabolism in human HepG2 cell lysate assessed as epoxide hydrolase-mediated 1H,1'H-[2,3']Biindolylidene-3,2'-dione 3-[O-(2,3-dihydroxy-propyl)-oxime] level after 5 mins by HPLC analysis; type: ADME
[26] = Drug metabolism in human HepG2 cell lysate assessed as epoxide hydrolase-mediated oxirane hydrolysis at 9 uM measured up to 30 mins by HPLC analysis; type: ADME; conditions: 0.5 h

| SMILES | IC50 [1] [µM] | also measured |
| --- | --- | --- |
| O=C1Nc2ccccc2/C1=C1/Nc2cc(Br)ccc2/C1=N\O | 14 | – |
| O=C1Nc2ccccc2/C1=C1/Nc2ccccc2C1=O [INDIRUBIN] | > 100 | – |
| O=C1Nc2c(Br)cc(Br)cc2/C1=C1/Nc2ccccc2/C1=N\O | 6.6 | – |
| O=C1Nc2cc(Br)c(Br)cc2/C1=C1/Nc2ccccc2/C1=N\O | 4.4 | – |
| O=C1Nc2c(Br)cccc2/C1=C1/Nc2ccccc2/C1=N\O | 4.8 | – |
| O=C1Nc2c(Br)cccc2/C1=C1/Nc2ccc(Br)cc2C1=O | > 100 | – |
| COc1ccc2c(c1)/C(=C1/Nc3ccccc3/C1=N\OCC1CO1)C(=O)N2 (stereo unspecified) | 1.6 | – |
| O=C1Nc2c(Br)cccc2/C1=C1/Nc2ccc(Br)cc2/C1=N\OCC1CO1 (stereo unspecified) | 10 | Activity [2]: inactive |
| O=C1Nc2ccc(Cl)cc2/C1=C1/Nc2ccccc2/C1=N\OCC1CO1 (stereo unspecified) | 1.3 | – |
| O=C1Nc2c(Br)cccc2/C1=C1/Nc2ccccc2C1=O | > 100 | – |
| O=C1Nc2ccc(Br)cc2/C1=C1/Nc2cc(Br)ccc2/C1=N\O | > 100 | – |
| O=C1Nc2ccc(Br)cc2/C1=C1/Nc2ccccc2/C1=N\O [INDIRUBIN 2] | 6.9 | – |
| O=C1Nc2ccc(I)cc2/C1=C1/Nc2ccccc2/C1=N\O | 57 | – |
| O=C1Nc2c(Br)cc(Br)cc2/C1=C1/Nc2ccccc2/C1=N\OCC1CO1 (stereo unspecified) | 8.8 | Activity [2]: inactive |
| O=C1Nc2ccc(Cl)cc2/C1=C1/Nc2ccccc2C1=O | > 100 | – |
| O=C1Nc2ccc(Br)cc2/C1=C1/Nc2ccccc2/C1=N\OCC1CO1 (stereo unspecified) | 0.62 | Drug metabolism [3]: 4 nmol; Drug metabolism [4]: Tde; Drug metabolism [5]: Metabolite_Detected; Drug recovery [6]: 80%; Km at 5 min [7]: 3.34 µM; viability at 1 µM [8]: 39%; Drug recovery [9]: Tde; Retention_time [10]: 5.9 min; Drug metabolism [11]: Metabolite_Detected; inhibition [12]: Tde; Activity [13]: inactive; viability at 3 µM [14]: 4.8%; Activity [15]: Active; Drug metabolism [16]: <= 4 nmol; viability at 3 µM [17]: 30%; remaining at 5 min [18]: 88%; remaining at 0 min [19]: 95%; viability at 1 µM [20]: 10% |
| O=C1Nc2ccccc2/C1=C1/Nc2ccc(Br)cc2C1=O | > 100 | – |
| O=C1Nc2ccc(I)cc2/C1=C1/Nc2ccccc2/C1=N\OCC1CO1 (stereo unspecified) | 3 | – |
| O=C1Nc2ccc(Br)cc2/C1=C1/Nc2ccc(Br)cc2C1=O | > 100 | – |
| O=C1Nc2cc(Br)ccc2/C1=C1/Nc2cc(Br)ccc2C1=O | > 100 | – |

| SMILES | IC50 [1] [µM] | also measured |
| --- | --- | --- |
| O=C1Nc2ccc(F)cc2/C1=C1/Nc2ccccc2/C1=N\OCC1CO1 (stereo unspecified) | 1.7 | – |
| O=C1Nc2c(Br)cccc2/C1=C1/Nc2cc(Br)ccc2/C1=N\OCC1CO1 (stereo unspecified) | > 100 | – |
| O=C1Nc2cc(Br)ccc2/C1=C1/Nc2ccc(Br)cc2/C1=N\OCC1CO1 (stereo unspecified) | > 100 | – |
| COc1ccc2c(c1)/C(=C1/Nc3ccccc3/C1=N\O)C(=O)N2 | 6.2 | – |
| O=C1Nc2ccc(Br)cc2/C1=C1/Nc2ccc(Br)cc2/C1=N\OCC1CO1 (stereo unspecified) | 2.5 | – |
| O=C1Nc2ccccc2/C1=C1/Nc2ccccc2/C1=N\OCCC1CO1 (stereo unspecified) | 7.8 | – |
| O=C1Nc2cc(Br)ccc2/C1=C1/Nc2cc(Br)ccc2/C1=N\OCC1CO1 (stereo unspecified) | > 100 | – |
| O=C1Nc2ccc(F)cc2/C1=C1/Nc2ccccc2C1=O | > 100 | – |
| O=C1Nc2c(Br)cccc2/C1=C1/Nc2ccc(Br)cc2/C1=N\O | 4.9 | – |
| O=C1Nc2ccc(Br)cc2/C1=C1/Nc2ccccc2/C1=N\OCC(O)CO (stereo unspecified) | 9.8 | Activity [21]: Not Active; Retention_time [10]: 3.5 min; inhibition [22]: inactive |
| O=C1Nc2ccccc2/C1=C1/Nc2ccccc2/C1=N\OCC1CO1 (stereo unspecified) | – | Km at 5 min [7]: 1.51 µM; Drug metabolism [23]: 2.24 nmol; viability at 1 µM [8]: 66%; remaining at 0.5 h [24]: 96 to 103%; Drug metabolism [25]: 7.34 nmol; viability at 3 µM [14]: 1.8%; Drug metabolism [26]: 1.8 nmol; viability at 3 µM [17]: 33%; viability at 1 µM [20]: 85% |
| COc1ccc2c(c1)NC(=O)/C2=C1\Nc2ccccc2\C1=N/OCC1CO1 (stereo unspecified) | 61 | – |
| O=C1Nc2cc(Br)c(Br)cc2/C1=C1/Nc2ccccc2C1=O | > 100 | – |
| COc1cccc2c1NC(=O)/C2=C1\Nc2ccccc2\C1=N/OCC1CO1 (stereo unspecified) | 10 | – |
| O=C1Nc2ccc(Cl)cc2/C1=C1/Nc2ccccc2/C1=N\O | 13 | – |
| O=C1Nc2cc(Br)ccc2/C1=C1/Nc2ccc(Br)cc2C1=O | > 100 | – |
| O=C1Nc2cc(Br)ccc2/C1=C1/Nc2ccccc2C1=O | > 100 | – |
| O=C1Nc2ccccc2/C1=C1/Nc2cc(Br)ccc2/C1=N\OCC1CO1 (stereo unspecified) | 4.5 | – |
| O=C1Nc2cc(Br)ccc2/C1=C1/Nc2cc(Br)ccc2/C1=N\O | 16 | – |
| O=C1Nc2c(Br)cccc2/C1=C1/Nc2ccccc2/C1=N\OCC1CO1 (stereo unspecified) | 37 | Activity [2]: inactive |

| SMILES | IC50 [1] [µM] | also measured |
| --- | --- | --- |
| O=C1Nc2cc(Br)c(Br)cc2/C1=C1/Nc2ccccc2/C1=N\OCC1CO1 (stereo unspecified) | 1.9 | viability at 1 µM [8]: 78%; viability at 3 µM [14]: 6.5%; viability at 3 µM [17]: 48%; viability at 1 µM [20]: 96% |
| O=C1Nc2ccccc2/C1=C1/Nc2ccc(Br)cc2/C1=N\O | 11 | – |
| O=C1Nc2cc(Br)ccc2/C1=C1/Nc2ccc(Br)cc2/C1=N\O | 3.7 | – |
| O=C1Nc2c(Br)cccc2/C1=C1/Nc2cc(Br)ccc2C1=O | > 100 | – |
| O=C1Nc2ccc(Br)cc2/C1=C1/Nc2ccccc2C1=O | > 100 | – |
| O=C1Nc2ccc(Br)cc2/C1=C1/Nc2ccc(Br)cc2/C1=N\O | 7 | – |
| COc1ccc2c(c1)NC(=O)/C2=C1\Nc2ccccc2\C1=N/O | 21 | – |
| O=C1Nc2ccc(Br)cc2/C1=C1/Nc2cc(Br)ccc2/C1=N\OCC1CO1 (stereo unspecified) | > 100 | – |
| COc1cccc2c1NC(=O)/C2=C1\Nc2ccccc2C1=O | > 100 | – |
| COc1ccc2c(c1)/C(=C1/Nc3ccccc3C1=O)C(=O)N2 | > 100 | – |
| COc1ccc2c(c1)NC(=O)/C2=C1\Nc2ccccc2C1=O | > 100 | – |
| O=C1Nc2ccc(Br)cc2/C1=C1/Nc2cc(Br)ccc2C1=O | > 100 | – |
| O=C1Nc2cc(Br)ccc2/C1=C1/Nc2ccccc2/C1=N\OCC1CO1 (stereo unspecified) | > 100 | – |
| O=C1Nc2ccc(I)cc2/C1=C1/Nc2ccccc2C1=O | > 100 | – |
| O=C1Nc2ccc(F)cc2/C1=C1/Nc2ccccc2/C1=N\O | 10 | – |
| O=C1Nc2c(Br)cccc2/C1=C1/Nc2cc(Br)ccc2/C1=N\O | 17 | – |
| COc1cccc2c1NC(=O)/C2=C1\Nc2ccccc2\C1=N/O | 5.9 | – |
| O=C1Nc2ccccc2/C1=C1/Nc2ccccc2/C1=N\OCCCC1CO1 (stereo unspecified) | 16 | – |
| O=C1Nc2ccccc2/C1=C1/Nc2ccc(Br)cc2/C1=N\OCC1CO1 (stereo unspecified) | 3.3 | – |
| O=C1Nc2ccccc2/C1=C1/Nc2cc(Br)ccc2C1=O | > 100 | – |
